Data as given in ChEMBL document CHEMBL4219271, “Synthesis and anti-proliferative activity of allogibberic acid derivatives containing 1,2,3-triazole pharmacophore” (Bioorg Med Chem Lett, 2018).

Tests used:
[1] = system: MCF7; assay: Cytotoxicity against human MCF7 cells assessed as decrease in cell viability after 4 days by MTT assay; type: functional, cell-based; conditions: MCF7, 96 h
[2] = system: HL-60; assay: Cytotoxicity against human HL60 cells assessed as decrease in cell viability after 4 days by MTT assay; type: functional, cell-based; conditions: HL-60, 96 h
[3] = system: SW480; assay: Cytotoxicity against human SW480 cells assessed as decrease in cell viability after 4 days by MTT assay; type: functional, cell-based; conditions: SW480, 96 h
[4] = system: SW480; assay: Potency index, ratio of cisplatin IC50 to compound IC50 for human SW480 cells; type: functional
[5] = system: SMMC-7721; assay: Cytotoxicity against human SMMC7721 cells assessed as decrease in cell viability after 4 days by MTT assay; type: functional, cell-based; conditions: SMMC-7721, 96 h
[6] = system: A549; assay: Cytotoxicity against human A549 cells assessed as decrease in cell viability after 4 days by MTT assay; type: functional, cell-based; conditions: A549, 96 h
[7] = system: MCF7; assay: Potency index, ratio of cisplatin IC50 to compound IC50 for human MCF7 cells; type: functional

Row | SMILES | IC50 [1] | IC50 [2] | IC50 [3] | Ratio IC50 [4] | IC50 [5] | IC50 [6] | Ratio IC50 [7]
1 | C=C1C(=O)[C@]23C[C@@]1(O)CC[C@H]2c1ccc(O)c(C)c1[C@@H]3Cn1cc(-c2ccc(Cl)cc2)nn1 | 2470 nM | 690 nM | 280 nM | 29 | 670 nM | 640 nM | –
2 | C=C1C(=O)[C@]23C[C@@]1(O)CC[C@H]2c1ccc(O)c(C)c1[C@@H]3Cn1cc(-c2ccc(OC)cc2)nn1 | 1710 nM | 1150 nM | 220 nM | 39 | 860 nM | 1250 nM | –
3 | C=C1C(=O)[C@]23C[C@@]1(O)CC[C@H]2c1ccc(O)c(C)c1[C@@H]3Cn1cc(-c2ccc(Br)cc2)nn1 | 270 nM | 560 nM | 310 nM | 36 | 1300 nM | 1140 nM | –
4 | C=C1C(=O)[C@]23C[C@@]1(O)CC[C@H]2c1ccc(O)c(C)c1[C@@H]3Cn1cc(-c2ccccn2)nn1 | 2240 nM | 1970 nM | 410 nM | 20 | 1270 nM | 1570 nM | –
5 | C=C1C(=O)[C@]23C[C@@]1(O)CC[C@H]2c1ccc(OS(=O)(=O)c2ccc(C)cc2)c(C)c1[C@@H]3Cn1cc(-c2ccc(Cl)cc2)nn1 | 1440 nM | 1260 nM | 2390 nM | – | 6180 nM | 1870 nM | 8
6 | C=C1C(=O)[C@]23C[C@@]1(O)CC[C@H]2c1ccc(O)c(C)c1[C@@H]3Cn1cc(-c2ccc(C(F)(F)F)cc2)nn1 | 1840 nM | 720 nM | 370 nM | 22 | 1440 nM | 1110 nM | –
7 | C=C1C(=O)[C@]23C[C@@]1(O)CC[C@H]2c1ccc(O)c(C)c1[C@@H]3Cn1cc(-c2ccc(C)cc2)nn1 | 370 nM | 830 nM | 330 nM | 25 | 920 nM | 1260 nM | –
8 | C=C1C(=O)[C@]23C[C@@]1(O)CC[C@H]2c1ccc(OS(=O)(=O)c2ccc(C)cc2)c(C)c1[C@@H]3Cn1cc(-c2ccc(Br)cc2)nn1 | 250 nM | 1020 nM | 1590 nM | – | 4320 nM | 1630 nM | 46
9 | C=C1C(=O)[C@]23C[C@@]1(O)CC[C@H]2c1ccc(O)c(C)c1[C@@H]3Cn1cc(-c2ccccc2)nn1 | 1740 nM | 750 nM | 260 nM | 31 | 1320 nM | 1160 nM | –
10 | C=C1C(=O)[C@]23C[C@@]1(O)CC[C@H]2c1ccc(OS(=O)(=O)c2ccc(C)cc2)c(C)c1[C@@H]3Cn1cc(-c2ccc(F)cc2)nn1 | 330 nM | 1290 nM | 1630 nM | – | 4280 nM | 1950 nM | 35
11 | C=C1C(=O)[C@]23C[C@@]1(O)CC[C@H]2c1ccc(OS(=O)(=O)c2ccc(C)cc2)c(C)c1[C@@H]3Cn1cc(-c2ccc(C)cc2)nn1 | 320 nM | 1110 nM | 1460 nM | – | 4410 nM | 1830 nM | 36
12 | C=C1C(=O)[C@]23C[C@@]1(O)CC[C@H]2c1ccc(OS(=O)(=O)c2ccc(C)cc2)c(C)c1[C@@H]3Cn1cc(-c2ccccn2)nn1 | 320 nM | 1810 nM | 1970 nM | – | 2830 nM | 2310 nM | 36
13 | C=C1C(=O)[C@]23C[C@@]1(O)CC[C@H]2c1ccc(OS(=O)(=O)c2ccc(C)cc2)c(C)c1[C@@H]3Cn1cc(-c2ccc(OC)cc2)nn1 | 310 nM | 1020 nM | 1640 nM | – | 1720 nM | 1470 nM | 37
14 | C=C1C[C@]23C[C@@]1(O)CC[C@H]2c1ccc(O)c(C)c1[C@@H]3Cn1cc(-c2ccc(OC)cc2)nn1 | > 20000 nM | > 20000 nM | > 20000 nM | – | > 20000 nM | > 20000 nM | –
15 | C=C1C[C@]23C[C@@]1(O)CC[C@@H]2c1cccc(C)c1[C@@H]3Cn1cc(-c2ccc(Cl)cc2)nn1 | > 20000 nM | > 20000 nM | > 20000 nM | – | > 20000 nM | > 20000 nM | –
16 | Cc1ccc(S(=O)(=O)Oc2ccc3c(c2C)[C@H](Cn2cc(-c4ccccc4)nn2)[C@@]24CC(=O)[C@@](C)(CC[C@@H]32)C4)cc1 | > 20000 nM | > 20000 nM | > 20000 nM | – | > 20000 nM | > 20000 nM | –
